This note sets out measurements from patent publication US8524195B2, “Iron oxide nanoparticles as MRI contrast agents and their preparing method” (Korea Basic Science Institute, priority 2010, dated 2013).

This assay has as its system colon cancer (HT-29) cells. Kind of assay: XTT assay, relative viability of colon cancer (HT-29) cells. The class given is cell-based. The conditions noted are these: after 24 hours. The method, then:
Samples were prepared by introducing the nano contrast agents (CIONPs) and the iron oxide (Fe3O4) nanoparticle drug carriers (DOX-CIONPs) prepared in Examples 2 and 3 and anti-cancer medicines (Doxorubicine) into colon cancer (HT-29) cells by concentrations of 0.001, 0.01, 0.1, 1 and 10 mM. After 24 hours, XTT reagent was added to each sample and relative viability of cancer cells according to the concentration of CIONPs, DOX-CIONPs and anti-cancer medicines (Doxorubicine) were measured. The measurement was carried out by comparing optical absorbances of formazan products from the cancer cells using an absorption spectrometer (XTT assay).

`COc1cccc2c1C(=O)c1c(O)c3c(c(O)c1C2=O)C[C@@](O)(C(=O)CO)C[C@@H]3O[C@H]1C[C@H](N)[C@H](O)[C@H](C)O1` [Doxorubicine] yielded a cancer cells perished (0.1 mM) of 35%, a cancer cells perished (1 mM) of 60% and a cancer cells perished (10 nm (so in the source)) of 62%.
